Experimental data: patent US11214803B2, “Modulators of YAP1 expression” (Ionis Pharmaceuticals, Inc., priority 2019, dated 2022)
Marks after values point to notes of the source that are not given here. Strand notation (5' to 3'): a small letter for the sugar, then the base; units joined by * are phosphorothioate-linked, units joined directly phosphodiester-linked; [ ] holds rarer units or linkages, { } end groups; capitals alone tell only the bases. e = 2'-O-(2-methoxyethyl) (MOE); k = constrained ethyl (cEt); [5mC] = 5-methylcytosine; d = 2'-deoxy (DNA); m = 2'-O-methyl

Experiments:
[1] = Tolerability in Sprague-Dawley rats, plasma chemistry markers (Example 21); format: in vivo; settings: male Sprague-Dawley rats, 50 mg/kg s.c. weekly for 6 weeks (7 doses), 48 hours after last dose
Procedure: Sprague-Dawley rats are a multipurpose model used for safety and efficacy evaluations. The rats were treated with Ionis modified oligonucleotides from the studies described in the Examples above and evaluated for changes in the levels of various plasma chemistry markers.

[2] = Tolerability in Sprague-Dawley rats, kidney function, urine total protein to creatinine ratio (Example 21); settings: male Sprague-Dawley rats, 50 mg/kg s.c. weekly for 6 weeks (7 doses)
Procedure: Male Sprague-Dawley rats were maintained on a 12-hour light/dark cycle and fed ad libitum with Purina normal rat chow. Groups of 4 Sprague-Dawley rats each were weekly injected subcutaneously with 50 mg/kg of Ionis oligonucleotide for 6 weeks (total 7 doses). Forty-eight hours after the last dose, the rats were euthanized; and organs, urine and plasma were harvested for further analysis.
To evaluate the effect of Ionis oligonucleotides on kidney function, urinary levels of total protein and creatinine were measured using an automated clinical chemistry analyzer (Hitachi Olympus AU400c, Melville, N.Y.).

Yap1 mRNA [3] = test: Dose-dependent inhibition of human Yap1 in SNU-449 cells (Example 9, RTS36584); format: cell-based; settings: free uptake; for % UTC (Yap1 mRNA): approximately 48 hours; for IC50: linear regression on a log/linear plot
Method in brief: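 SNU-449 cells (10,000/well) took up modified oligonucleotides by free uptake at a range of doses for about 48 h. Yap1 mRNA was quantified with primer-probe set RTS36584, normalised to RIBOGREEN total RNA and expressed as % untreated control; IC50 from linear regression on log/linear plot.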

[4] = Tolerability in Sprague-Dawley rats, body and organ weights (Example 21); format: in vivo; settings: male Sprague-Dawley rats, 50 mg/kg s.c. weekly for 6 weeks (7 doses); for Kidney weight / Liver weight / Spleen weight: end of study; for body weight: terminal, prior to necropsy
Procedure: Terminal body weight was measured prior to necropsy. Ionis oligonucleotides that caused any changes in organ weights outside the expected range for modified oligonucleotides were excluded from further studies.

Yap1 mRNA [5] = test: Dose-dependent inhibition of human Yap1 in A-431 cells (Example 8, 10,000 cells per well, RTS4814); format: cell-based; settings: free uptake, approximately 48 hours, RTS4814; for Yap1 mRNA, % UTC: A-431 cells, 10,000 cells per well
Method in brief: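 A-431 cells (10,000/well) dosed with modified oligonucleotides by free uptake; Yap1 mRNA measured ~48 h later with primer-probe set RTS4814, normalized to total RNA (RIBOGREEN). Values are % of untreated control; IC50 from linear regression on log/linear plot.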

Yap1 mRNA [6] = test: Inhibition of human Yap1 mRNA in SNU449 hepatocellular carcinoma xenograft tumors (Example 26); format: in vivo; settings: SNU449 xenografts in NSG mice, 50 mg/kg twice weekly for five days, relative to PBS treated animals
Procedure: A SNU449 hepatocellular carcinoma xenograft tumor model was used to evaluate activity of modified oligonucleotides targeted to human Yap1. Ten million SNU449 cells in 30% matrigel were implanted subcutaneously into the flanks of female NOD Cg-Prkdcscid ll2rgtm1Wjl/SzJ (NSG) mice (from Jackson Laboratory) at 4-6 weeks of age. When tumors reached an average volume of 100 mm^3, approximately two weeks post-implantation, groups of four mice each were administered at 50 mg/kg twice weekly with modified oligonucleotides for five days. Tumors were collected and tested for Yap1 mRNA knockdown by RT-qPCR. Yap1 mRNA levels were measured as previously described using the Human Yap1 primer-probe set RTS4814. Yap1 mRNA levels were normalized to actin-beta content, as measured by primer probe set RTS5002. Results are presented in the tables below as percent control of the amount of Yap1 mRNA relative to PBS treated animals (% control).

SNU449 xenograft tumor = test: Tumor volume in SNU449 xenograft tumor model, alone and in combination with sorafenib (second Example 30); format: in vivo, human; settings: SNU449 xenograft in mice
Procedure: Modified oligonucleotides described in the studies above were tested in a hepatocellular carcinoma SNU449 xenograft tumor model. […] A control oligonucleotide 792169, described herein above, was also tested.
Five million SNU449 cells in 30% matrigel were implanted subcutaneously into the fatpads of female NOD.Cg-Prkdcscid II2rgtmlWjl/SzJ mice (from Jackson Laboratory) at 4-6 weeks of age. 43 days post implantation (when tumors had reached approximately 100 mm^3 in size), groups of eight mice each were administered with 50 mg/kg modified oligonucleotide daily for 10 days (loading dose), following which they were administered with 50 mg/kg modified oligonucleotide four times a week for one week, following which they were dosed with 50 mg/kg modified oligonucleotide thrice weekly until the end of the study. […] Animals were sacrificed, and tumors were collected on day 119 post implantation.
Tumor volumes were also measured at the indicated days in the table below.

ERK1/2 = test: Measurement of ERK activation (pERK/ERK) in SNU449 xenograft model with sorafenib (second Example 30); format: in vivo, human; settings: SNU449 xenograft in mice, combination therapy compared with sorafenib treatment alone
Procedure: Five million SNU449 cells in 30% matrigel were implanted subcutaneously into the fatpads of female NOD.Cg-Prkdcscid II2rgtmlWjl/SzJ mice (from Jackson Laboratory) at 4-6 weeks of age. 43 days post implantation (when tumors had reached approximately 100 mm^3 in size), groups of eight mice each were administered with 50 mg/kg modified oligonucleotide daily for 10 days (loading dose), following which they were administered with 50 mg/kg modified oligonucleotide four times a week for one week, following which they were dosed with 50 mg/kg modified oligonucleotide thrice weekly until the end of the study.
Protein analysis was carried out using standard procedures. […] ERK protein levels were compared to internal control GAPDH. […] The secondary antibody used was donkey anti-rabbit NA934, GE Healthcare. pERK/ERK levels were calculated relative to PBS control to determine % activation of ERK1/2.

[7] = Cynomolgus monkey tolerability, pro-inflammatory proteins analysis, Complement C3 and CRP (Example 34); format: in vivo; settings: cynomolgus monkeys, 35 mg/kg subcutaneously, day 42 pre-dose and 24 hours post-dose
Procedure: To evaluate any inflammatory effect of Ionis oligonucleotides in cynomolgus monkeys, blood samples were taken for analysis. The monkeys were fasted overnight prior to blood collection. On day 42 (pre-dose and 24 hours post-dose), approximately 0.8 mL of blood was collected from each animal and put into tubes without anticoagulant for serum separation. […] Complement C3 were measured using a Toshiba 120 FR NEO chemistry analyzer (Toshiba Co., Japan). […] Another marker of inflammation, C-Reactive Protein (CRP) was tested together with the clinical chemistry parameters tested for liver function above.

[8] = Cynomolgus monkey tolerability, hematology (Example 34); format: in vivo, cynomolgus monkeys; settings: cynomolgus monkeys, 35 mg/kg subcutaneously, blood samples day 44
Procedure: To evaluate any effect of Ionis oligonucleotides in cynomolgus monkeys on hematologic parameters, blood samples of approximately 0.5 mL of blood was collected from each of the available study animals on day 44. The samples were collected in tubes containing K2-EDTA. Samples were analyzed for red blood cell (RBC) count, Hemoglobin (HGB), Hematocrit (HCT), Mean corpuscular volume (MCV), mean corpuscular hemoglobin (MCH), mean corpuscular hemoglobin concentration (MCHC), RBC Distribution Width (RCDW), reticulocyte count (Retic), platelet count (PLT), mean platelet volume (MPV), white blood cells (WBC) count, individual white blood cell counts, such as that of monocytes (MON), neutrophils (NEU), lymphocytes (LYM), eosinophils (EOS), basophils (BAS), and large unstained cells (LUC) using an ADVIA2120i hematology analyzer (Siemens, USA).

[9] = Cynomolgus monkey tolerability, coagulation (Example 34); format: in vivo; settings: cynomolgus monkeys, 35 mg/kg subcutaneously, blood samples day 44
Procedure: To evaluate effect of Ionis modified oligonucleotides on coagulation in cynomolgus monkeys, blood samples of approximately 0.9 mL were collected from each of the available study animals on day 44. The samples were collected in tubes containing 3.2% sodium citrate. Coagulation parameters tested include Activated partial thromboplastin time (APTT), prothrombin time (PT) and Figrinogen (FIB).

[10] = Cynomolgus monkey tolerability, urine analysis (Example 34); settings: cynomolgus monkeys, 35 mg/kg subcutaneously, day 44
Procedure: Prior to the study, the monkeys were kept in quarantine during which the animals were observed daily for general health. The monkeys were 2-4 years old and weighed 2-4 kg. Eleven groups of 4 randomly assigned male cynomolgus monkeys each were injected subcutaneously with Ionis oligonucleotide or saline in a clock-wise rotation between four different sites on the back. Following loading doses on days 1, 3, 5 and 7, the monkeys were dosed once per week (on days 14, 21, 28, 35, and 42) with 35 mg/kg of Ionis oligonucleotide.
Food was removed overnight the day before fresh urine collection, but water was supplied. Fresh urine samples for urinalysis and urine chemistry were collected from all animals using a clean cage pan on wet ice (first in the morning) on day 44. Urinalysis/Urine Chemistry parameters creatinine (UCRE), microprotein (UTP), urine microalbumin (UALB), and protein/creatinine (P/C) ratio were measured using a Toshiba 120FR automated chemistry analyzer (Toshiba Co., Japan).

[11] = Cynomolgus monkey tolerability, kidney and liver function markers (Example 34); settings: cynomolgus monkeys, 35 mg/kg subcutaneously, blood samples day 44
[12] = Cynomolgus monkey tolerability, body and organ weight measurements (Example 34); format: in vivo; settings: cynomolgus monkeys, 35 mg/kg subcutaneously, loading doses days 1, 3, 5, 7, then once per week
Procedure: Cynomolgus monkeys were treated with Ionis modified oligonucleotides selected from studies described in the Examples above. Modified oligonucleotide tolerability was evaluated.
During the study period, the monkeys were observed twice daily for signs of illness or distress. Any animal experiencing more than momentary or slight pain or distress due to the treatment, injury or illness was treated by the veterinary staff with approved analgesics or agents to relieve the pain after consultation with the Study Director. Any animal in poor health or in a possible moribund condition was identified for further monitoring and possible euthanasia. Scheduled euthanasia of the animals was conducted on day 86 approximately 48 hours after the last dose by exsanguination while under deep anesthesia. The protocols described in the Example were approved by the Institutional Animal Care and Use Committee (IACUC).
To evaluate the effect of Ionis oligonucleotides on the overall health of the animals, body and organ weights were measured. Terminal body weight was measured prior to necropsy.

Row | Substance | ALT [1] | AST [1] | BUN [1] | TBIL [1] | URINE P/C ratio (total protein to creatinine ratio) [2] | % UTC (Yap1 mRNA) (Yap1 mRNA [3]; 31.3 nM) [% UTC] | % UTC (Yap1 mRNA) (Yap1 mRNA [3]; 125.0 nM) [% UTC] | % UTC (Yap1 mRNA) (Yap1 mRNA [3]; 500.0 nM) [% UTC] | % UTC (Yap1 mRNA) (Yap1 mRNA [3]; 2000.00 nM) [% UTC] | IC50 (Yap1 mRNA [3]) [nM] | Kidney weight [4] | Liver weight [4] | Spleen weight [4] | body weight [4] [g] | further results
1 | 1074756 (kG*k[5mC]*kA*d[5mC]*dT*dT*dT*dT*dA*d[5mC]*dA*dT*dT*kA*kG*kG) [compound 1074756] | 114* U/L | 79* U/L | 0.57* mg/dL | 0.10* mg/dL | 167 | 42 | 20 | 6 | 3 | < 30 | 4.71* g | 21* g | 1.99* g | 349 | Yap1 mRNA, % UTC (Yap1 mRNA [5]; 31.3 nM): 22 % UTC; Yap1 mRNA, % UTC (Yap1 mRNA [5]; 125.0 nM): 7 % UTC; Yap1 mRNA, % UTC (Yap1 mRNA [5]; 500.0 nM): 4 % UTC; Yap1 mRNA, % UTC (Yap1 mRNA [5]; 2000.00 nM): 4 % UTC; IC50 (Yap1 mRNA [5]; A-431 cells, linear regression on log/linear plot): < 20 nM
2 | 1198615 (kT*kT*kA*dA*dA*dG*dT*dG*dT*dA*dT*dG*kT*k[5mC]*kA*eG) [compound 1198615] | 38 U/L | 71 U/L | 21 mg/dL | 0.13 mg/dL | 8 | 52 | 23 | 5 | 2 | < 30 | 3.01 g | 16 g | 2.35 g | 369 | Yap1 mRNA in tumors, % control (Yap1 mRNA [6]): 62 % control
3 | 1200857 (kA*kG*kT*dG*dT*mA*dT*dG*dT*d[5mC]*dA*dG*dA*kA*kG*kA; antisense) [compound 1200857] | 183 U/L | 318 U/L | 56 mg/dL | 4.93 mg/dL | 52 | 66 | 30 | 8 | 2 | 100 | 6.97 g | 19 g | 2.55 g | 307 | –
4 | ION 1198440 (AAGTGTATGTCAGAAG; cEt, 2'-MOE, 5-methylcytosine, phosphorothioate modifications, further chemistry not given here) | – | – | – | – | – | – | – | – | – | – | – | – | – | – | tumor volume (SNU449 xenograft tumor; 50 mg/kg modified oligonucleotide alone): significant reduction in tumor volume; tumor volume, combination with sorafenib (SNU449 xenograft tumor; 50 mg/kg modified oligonucleotide plus 30 mg/kg sorafenib orally 7 times a week): further reduction in tumor volume; ERK1/2 activation (pERK/ERK relative to PBS control), combination with sorafenib (ERK1/2): significant decrease in ERK1/2 activation; inflammation (Complement C3) [7]: did not cause any inflammation; effect on hematologic parameters [8]: well tolerated; effect on coagulation parameters [9]: well tolerated; urine chemistry markers [10]: well tolerated; effect on liver function [11]: well tolerated; effect on body and organ weights [12]: well tolerated
